Assay results from US12060439B2, “Polymorph of echinocandin antifungal agent” (Cidara Therapeutics, Inc., priority 2018, dated 2024).
Starred links: 1 amine or outer side, 2 acyl side, 3 side chain; linkers in the order of their positions; H or OH if unused. Positions of bridges follow the written chain, without caps; N, C: chain ends. Non-standard residues stand in square brackets, D forms with d. Residues, ends and D or L forms follow the SMILES beside them. *: point of attachment. Orn(4R-OH,5R-OCH2CH2NMe3+) = C[N+](C)(C)CCO[C@@H](N[*:3])[C@H](O)C[C@H](N[*:1])C(=O)[*:2]; pTerphenylCO(4''-OnC5H11) = CCCCCOc1ccc(-c2ccc(-c3ccc(C(=O)*)cc3)cc2)cc1; hTyr(3S-OH,4S-OH) = N[C@H](C(=O)O)[C@H](O)[C@@H](O)c1ccc(O)cc1; Pro(3S-OH,4S-Me) = C[C@H]1CN[C@H](C(=O)O)[C@H]1O; Hyp = O=C(O)[C@@H]1C[C@@H](O)CN1

Columns and labels:
Type in all cases: physicochemical
[1] = Solid form stability of polymorph on drying or storage, analysed by XRPD
Method: Compound 1 acetate Type E (1 g) was added to a beaker and dried in the vacuum oven at 40° C. overnight (not more than 18 hours). The solid was analyzed by XRPD analysis and shown to be Type B (FIG. 6).
Four samples of compound 1 acetate Type E were added to vials and placed in a desiccator, under vacuum, for up to 7 days.

[2] = Form stability as a function of ethanol activity (aEtOH)
Method: Compound 1 acetate and a solvent or solvent mixture were added to a vial and stirred at ambient temperature overnight to form a saturated suspension. Ethanol (EtOH) activity (aEtOH) of the solvent or solvent mixture was calculated using UNIFAC software. A further aliquot of the solvent or solvent mixture was added to the vial if the mixture was very thick. If all solids had dissolved, further amounts of compound 1 acetate were added and the mixture was stirred overnight. The slurry was then seeded with compound 1 acetate and compound 1 acetate-EtOH solvate and allowed to stir at ambient temperature for several days before isolation of solids and analysis by XRPD.
Compound 1 acetate Type E is a metastable solvate and converts to compound 1 acetate Type B on drying or storage at low ethanol activity (aEtOH<0.2). Type E was stable at an EtOH activity of >0.8.

[3] = Dynamic vapour sorption experiment; conditions: for weight gain during the sorption isotherm: from 40-80% RH, 10% RH increments
Method: Further weight loss above 160° C. may correspond with the onset of decomposition. A dynamic vapour sorption experiment of Type B material was performed. The sample was subjected to a step profile from 40-90% RH at 10% increments, followed by desorption from 90-0% RH at 10% increments and then adsorption from 0-40% RH at 10% increments.
A dynamic vapour sorption experiment of Type E material was performed. The sample was subjected to a step profile from 40 to 90% RH at 10% increments, followed by desorption from 90 to 0% RH at 10% increments and then adsorption from 0 to 40% RH at 10% increments. […] There was a larger weight gain above 80% RH.

[4] = Slurrying in EtOH at 40° C., form transformation by XRPD; conditions: after 3 days
[5] = Ambient conditions (44-63% RH, 20-25° C.) for 5 days
[6] = ambient temperature in the desiccator

| SMILES | XRPD Result [1, 5] | XRPD Result ([1]; Desiccator under vacuum at ambient conditions for 4 hours) | XRPD Result ([1]; Desiccator under vacuum at ambient conditions for 1 day) | XRPD Result ([1]; Desiccator under vacuum at ambient conditions for 5 days) | XRPD Result ([1]; Desiccator under vacuum at ambient conditions for 7 days) | time for which the form was stable [1, 6] | time to complete conversion to Type B [1, 6] [days] | XRPD Result after drying ([1]; vacuum oven at 40° C. overnight (not more than 18 hours)) | EtOH activity at which the form was stable [2] | ethanol activity at which the form converts to Type B on storage ([2]; low ethanol activity) | weight loss during the equilibration hold ([3]; equilibration hold at 40% RH) [%] | weight gain during the sorption isotherm [3] [%] | form transformation to Type A (XRPD) [4] |
| --- | --- | --- | --- | --- | --- | --- | --- | --- | --- | --- | --- | --- | --- |
| CCCCCOc1ccc(-c2ccc(-c3ccc(C(=O)N[C@H]4C[C@@H](O)[C@@H](OCC[N+](C)(C)C)NC(=O)[C@@H]5[C@@H](O)[C@@H](C)CN5C(=O)[C@H]([C@@H](C)O)NC(=O)[C@H]([C@H](O)[C@@H](O)c5ccc(O)cc5)NC(=O)[C@@H]5C[C@@H](O)CN5C(=O)[C@H]([C@@H](C)O)NC4=O)cc3)cc2)cc1 [Type E] ({pTerphenylCO(4''-OnC5H11)}-[Orn(4R-OH,5R-OCH2CH2NMe3+)]T[Hyp][hTyr(3S-OH,4S-OH)]T[Pro(3S-OH,4S-Me)]; lactam 1-C) | Type B | Type E | Type B + Type E | Type B | Type B | up to 4 hours | ≤ 5 | Type B | > 0.8 | < 0.2 | ~18.5 | 5 |  |
| CCCCCOc1ccc(-c2ccc(-c3ccc(C(=O)N[C@H]4C[C@@H](O)[C@@H](OCC[N+](C)(C)C)NC(=O)[C@@H]5[C@@H](O)[C@@H](C)CN5C(=O)[C@H]([C@@H](C)O)NC(=O)[C@H]([C@H](O)[C@@H](O)c5ccc(O)cc5)NC(=O)[C@@H]5C[C@@H](O)CN5C(=O)[C@H]([C@@H](C)O)NC4=O)cc3)cc2)cc1 [Type B] ({pTerphenylCO(4''-OnC5H11)}-[Orn(4R-OH,5R-OCH2CH2NMe3+)]T[Hyp][hTyr(3S-OH,4S-OH)]T[Pro(3S-OH,4S-Me)]; lactam 1-C) | Type B |  |  |  |  |  |  |  |  |  |  | 6 | no form transformation |
